In patent publication US8455543B2, “Platinum complexes and methods for inhibiting tumor cell proliferation” (University of South Florida, priority 2004, dated 2013):
Read-outs that look alike come from different tables or passages of the source.

Experiments:
Assay in all cases: MTT assay, growth inhibition of human tumor cells
Assay type in all cases: cell-based
Calu-1 = Calu-1 cells, 4 days treatment, several values = separate determinations
Panc-1 = system: Panc-1
A549 = system: A549
[1] = Homo sapiens, 96 h, MTT assay, Panc-1 cells, 4 days treatment, several values = separate determinations
[2] = MTT assay, Panc-1 cells, 4 days treatment, several values = separate determinations

O=c1[nH]cc(F)c(=O)[nH]1 [5-FU, 5-fluorouracil, reference compound] was tested. Which IC50 (Calu-1; Homo sapiens, 96 h) did it give?
The IC50 was 250 µM.

What about the IC50 (Panc-1; [1]) of the same molecule?
Its IC50 is 5 µM.

What does the source list for NC(=O)NO [hydroxyurea, reference compound]?
IC50 (Calu-1; Homo sapiens, 96 h): > 250 µM; IC50 (Panc-1; [1]): 1.3 µM

For “Pt^IV(en) (HOHN—CO—NH2)(NO2) 5-FU [CPA-13]”, which IC50 (Panc-1; [2]) is on record?
The IC50 was 2.3 µM.

For “[Cis-Pt IV(NH3)2(Cl)2(NO2) (5-FU)] [JP3]”, which IC50 (Panc-1; [2]) is on record?
Its IC50 is 2.6 µM.

With “[Cis-Pt IV(NH3)2(Cl)2(NO2) (OP(-salicylate)(OH)O)] [JP6]” as the molecule, how does the IC50 (Panc-1) read?
The IC50 was 5.5 µM.

With cis-[Pt^IV(NH3)2Cl2NO2-5FU [CPA-14] as the molecule, how does the IC50 (Calu-1) read?
Its IC50 is 13 µM.

Which results are given for “cis-[Pt^IV(NH3)2Cl2NO2-salicylate] [CPA-19]”?
IC50 (A549): 37 µM; IC50 (Panc-1): 20 µM
